Measurements published in US11440923B2, “Substituted macrocyclic indole derivatives” (Bayer Aktiengesellschaft, priority 2017, dated 2022).
Structures can show the parent of a compound that is named as a salt. Where two headings read alike, the source gives them in different places.

Key:
Format in all cases: cell-based
SUDHL5 cells [1] = test: Induction of caspase-3/7 activity in SUDHL5 cells (Assay 4)
Summary of the method: (§1)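 Read-out: Caspase-Glo 3/7 luminescence (1 h, 37 °C) after cells, plated overnight, were treated with compounds for 3 h at 37 °C. Signal corrected for cell-free medium background and expressed relative to DMSO control mean.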

SUDHL10 cells = test: Induction of caspase-3/7 activity in SUDHL10 cells (Assay 4)
Summary of the method: as §1

SUDHL5 cells [2] = test: Antiproliferation assay SUDHL5 (Assay 7)
Summary of the method: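 Using a parallel time-zero plate as baseline, the anti-proliferative effect was assessed by CellTiter-Glo after 72 h compound incubation at 37 °C. IC50 was computed from day 0 and DMSO control values.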

[3] = Homo sapiens, SU-DHL-5, 3 h, caspase-3/7 induction, 3 h; read-out: Caspase SUDHL5 EC50 (median)
[4] = Homo sapiens, SU-DHL10, 3 h, caspase-3/7 induction, 3 h; read-out: Caspase SUDHL10 EC50 (median)
[5] = Homo sapiens, SU-DHL-5, 72 h, 72 h, CellTiter-Glo, read-out: Antiproli SUDHL5 IC50 (median)
[6] = caspase-3/7 induction, 3 h; read-out: Caspase SUDHL5 EC50 (median)
[7] = caspase-3/7 induction, 3 h; read-out: Caspase SUDHL10 EC50 (median)
[8] = 72 h, CellTiter-Glo, read-out: Antiproli SUDHL5 IC50 (median)
[9] = read-out: Caspase SUDHL5 EC50 (median); caspase-3/7 induction, 3 h
[10] = read-out: Caspase SUDHL10 EC50 (median); caspase-3/7 induction, 3 h
[11] = read-out: Antiproli SUDHL5 IC50 (median), 72 h, CellTiter-Glo

| Structure (SMILES) | EC50 (SUDHL5 cells [1]; [6]) | EC50 (SUDHL10 cells; [7]) | IC50 (SUDHL5 cells [2]; [8]) | EC50 (SUDHL5 cells [1]; [9]) | EC50 (SUDHL10 cells; [10]) | other results |
| --- | --- | --- | --- | --- | --- | --- |
| CCc1c2c(nn1C)C(C(F)(F)F)OCCCCn1c(C(=O)O)c(CCCOc3cccc4ccccc34)c3ccc(Cl)c-2c31 (racemic) [Example 27, (rac)-4-Chloro-3-ethyl-2-methyl-7-{3-[(naphthalen-1-yl)oxy]propyl}-15-(trifluoromethyl)-2,10,11,12,13,15-hexahydropyrazolo[4′,3′:9,10][1,6]oxazacycloundecino[8,7,6-hi]indole-8-carboxylic Acid] | – | – | – | – | – | EC50 (SUDHL5 cells [1]; [3]): 3200 nM; EC50 (SUDHL10 cells; [4]): 6600 nM; IC50 (SUDHL5 cells [2]; [5]): 170 nM |
| CCc1c2c(nn1C)C(C1CC1)OCCCCn1c(C(=O)O)c(CCCOc3cccc4cc(F)ccc34)c3ccc(Cl)c-2c31 (racemic) [Example 38, (rac)-4-chloro-(15-rac)-cyclopropyl-3-ethyl-7-{3-[(6-fluoronaphthalen-1-yl)oxy]propyl}-2-methyl-2,10,11,12,13,15-hexahydropyrazolo[4′,3′:9,10][1,6]oxazacycloundecino[8,7,6-hi]indole-8-carboxylic Acid] | – | – | – | – | – | EC50 (SUDHL5 cells [1]; [3]): 3600 nM; EC50 (SUDHL10 cells; [4]): 5300 nM |
| CCc1c2c(nn1C)C1CCCCN1CCCCn1c(C(=O)O)c(CCCOc3cccc4ccccc34)c3ccc(Cl)c-2c31 (racemic) [Example 102, (rac)-18-chloro-1-ethyl-2-methyl-15-[3-(1-naphthyloxy)propyl]-2,3b,4,5,6,7,9,10,11,12-decahydropyrazolo[3′,4′:8,9]pyrido[1′,2′:6,7][1,6]diazacycloundecino[10,11,1-hi]indole-14-carboxylic Acid] | – | – | – | – | – | EC50 (SUDHL5 cells [1]; [3]): 770 nM; EC50 (SUDHL10 cells; [4]): 1000 nM; IC50 (SUDHL5 cells [2]; [5]): 1400 nM |
| CCc1c2c(nn1C)C(CCN1CCOCC1)OCCCCn1c(C(=O)O)c(CCCOc3cccc4ccccc34)c3ccc(F)c-2c31 (single isomer, unassigned; enantiomer 1) [Example 11, 3-ethyl-4-fluoro-2-methyl-15-[2-(morpholin-4-yl)ethyl]-7-{3-[(naphthalen-1-yl)oxy]propyl}-2,10,11,12,13,15-hexahydropyrazolo[4′,3′:9,10][1,6]oxazacycloundecino[8,7,6-hi]indole-8-carboxylic Acid—N-ethylethanamine Salt (Enantiomer 1)] | – | – | – | 97 nM | 190 nM | IC50 (SUDHL5 cells [2]; [11]): 75 nM |
| CCc1c2c(nn1C)C(C(F)(F)F)OCCCCn1c(C(=O)O)c(CCCOc3cccc4ccccc34)c3ccc(Cl)c-2c31 (single isomer, unassigned; enantiomer 1) [Example 33, (+)-4-chloro-3-ethyl-2-methyl-7-{3-[(naphthalen-1-yl)oxy]propyl}-15-(trifluoromethyl)-2,10,11,12,13,15-hexahydropyrazolo[4′,3′:9,10][1,6]oxazacycloundecino[8,7,6-hi]indole-8-carboxylic Acid—N-ethylethanamine Salt (Enantiomer 1)] | – | – | – | 1800 nM | 4500 nM | – |
| CCc1c2c(nn1C)C(C1CC1)OCCCCn1c(C(=O)O)c(CCCOc3cccc4cc(F)ccc34)c3ccc(Cl)c-2c31 (single isomer, unassigned; enantiomer 1) [Example 39, (+)-4-chloro-15-cyclopropyl-3-ethyl-7-{3-[(6-fluoronaphthalen-1-yl)oxy]propyl}-2-methyl-2,10,11,12,13,15-hexahydropyrazolo[4′,3′:9,10][1,6]oxazacycloundecino[8,7,6-hi]indole-8-carboxylic Acid—N-ethylethanamine Salt (Enantiomer 1)] | – | – | – | 750 nM | 1500 nM | IC50 (SUDHL5 cells [2]; Homo sapiens, SU-DHL-5, 72 h, read-out: Antiproli SUDHL5 IC50 (median), 72 h, CellTiter-Glo): 880 nM |
| CCc1c2c(nn1C)C(CCC1CCOCC1)OCCCCn1c(C(=O)O)c(CCCOc3cccc4cc(F)ccc34)c3ccc(Cl)c-2c31 (single isomer, unassigned; enantiomer 1) [Example 61, 4-chloro-3-ethyl-7-{3-[(6-fluoronaphthalen-1-yl)oxy]propyl}-2-methyl-15-[2-(oxan-4-yl)ethyl]-2,10,11,12,13,15-hexahydropyrazolo[4′,3′:9,10][1,6]oxazacycloundecino[8,7,6-hi]indole-8-carboxylic Acid (Enantiomer 1)] | 31 nM | 23 nM | 24 nM | – | – | – |
| CCc1c2c(nn1C)C(CCC1CCOCC1)OCCCCn1c(C(=O)O)c(CCCOc3cccc4cc(F)ccc34)c3ccc(Cl)c-2c31 (single isomer, unassigned; enantiomer 1) [Example 63, (+)-4-chloro-3-ethyl-7-{3-[(6-fluoronaphthalen-1-yl)oxy]propyl}-2-methyl-15-[2-(oxan-4-yl)ethyl]-2,10,11,12,13,15-hexahydropyrazolo[4′,3′:9,10][1,6]oxazacycloundecino[8,7,6-hi]indole-8-carboxylic Acid—N-ethylethanamine Salt (Enantiomer 1)] | – | – | – | 35 nM | 53 nM | IC50 (SUDHL5 cells [2]; [11]): 42 nM |

Further lines, with some results ahead:

| EC50 (SUDHL5 cells [1]; [6]) | EC50 (SUDHL10 cells; [7]) | IC50 (SUDHL5 cells [2]; [8]) | Structure (SMILES) | EC50 (SUDHL5 cells [1]; [9]) | EC50 (SUDHL10 cells; [10]) | other results |
| --- | --- | --- | --- | --- | --- | --- |
| 13 nM | 9.9 nM | 16 nM | CCc1c2c(nn1C)C(CCN1CC(F)(F)C1)OCCCCn1c(C(=O)O)c(CCCOc3cccc4cc(F)ccc34)c3ccc(Cl)c-2c31 (single isomer, unassigned; (+)) [Example 78, (+)-4-chloro-15-[2-(3,3-difluoroazetidin-1-yl)ethyl]-3-ethyl-7-{3-[(6-fluoronaphthalen-1-yl)oxy]propyl}-2-methyl-2,10,11,12,13,15-hexahydropyrazolo[4′,3′:9,10][1,6]oxazacycloundecino[8,7,6-hi]indole-8-carboxylic Acid—N-ethylethanamine Salt] | – | – | – |
| 330 nM | 130 nM | 340 nM | CCc1c2c(nn1C)C1CCCN1CCCCn1c(C(=O)O)c(CCCOc3cccc4cc(F)ccc34)c3ccc(Cl)c-2c31 (single isomer, unassigned; (+)) [Example 105, (+)-17-chloro-1-ethyl-14-{3-[(6-fluoronaphthalen-1-yl)oxy]propyl}-2-methyl-3b,4,5,6,8,9,10,11-octahydro-2H-pyrazolo[3′,4′:8,9]pyrrolo[1′,2′:6,7][1,6]diazacycloundecino[10,11,1-hi]indole-13-carboxylic Acid] | – | – | – |
| 9.7 nM | 6.6 nM | 11 nM | CCc1c2c(nn1C)C(CCC(C)(C)O)OCCCCn1c(C(=O)O)c(CCCOc3cccc4cc(F)ccc34)c3ccc(Cl)c-2c31 (single isomer, unassigned; enantiomer 1) [Example 75, (+)-4-chloro-3-ethyl-7-{3-[(6-fluoronaphthalen-1-yl)oxy]propyl}-15-(3-hydroxy-3-methylbutyl)-2-methyl-2,10,11,12,13,15-hexahydropyrazolo[4′,3′:9,10][1,6]oxazacycloundecino[8,7,6-hi]indole-8-carboxylic Acid—N-ethylethanamine Salt (Enantiomer 1)] | – | – | – |
